According to US20240376163A1, “PEPTIDE FOR INHIBITING CALCINEURIN AND USE THEREOF” (Seoul National University R&DB Foundation, priority 2023, published 2024):

Test system: Jurkat T cells
Assay: mRNA sequencing of activated Jurkat T cells
Assay type: cell-based, human
Settings: Jurkat T cells, P + I

PEITVTPPTP [CABIN1-L-1-2] was tested, and the “ECE1 FPKM” value was 59.384 FPKM, the “EFHD2 FPKM” value was 234.38 FPKM and the “EGR1 FPKM” value was 123.294 FPKM. For the same sequence, the “EGR2 FPKM” value was 9 FPKM, the “EHBP1L1 FPKM” value was 5.023 FPKM and the “EMP1 FPKM” value was 4.589 FPKM. The “ETS1 FPKM” value was 38.627 FPKM, the “FADS2 FPKM” value was 48.612 FPKM and the “FAM64A FPKM” value was 6.008 FPKM. For the same sequence, the “FAT1 FPKM” value was 11.964 FPKM, the “FBLN2 FPKM” value was 3.01 FPKM and the “FKBP5 FPKM” value was 7.791 FPKM. The “FLI1 FPKM” value was 10.752 FPKM, the “FOSL1 FPKM” value was 12.705 FPKM and the “FOSL2 FPKM” value was 2.362 FPKM. For the same sequence, the “FXYD5 FPKM” value was 42.856 FPKM, the “FYN FPKM” value was 15.512 FPKM and the “GAD1 FPKM” value was 2.238 FPKM. The “GFOD1 FPKM” value was 6.312 FPKM, the “GFRA1 FPKM” value was 0.76 FPKM and the “GKAP1 FPKM” value was 2.927 FPKM. For the same sequence, the “GLRB FPKM” value was 1.354 FPKM, the “GLRX FPKM” value was 21.013 FPKM and the “GNG4 FPKM” value was 7.415 FPKM. For the same sequence, the “GPC2 FPKM” value was 4.85 FPKM, the “GPR17 FPKM” value was 0.181 FPKM and the “GPR68 FPKM” value was 11.224 FPKM. For the same sequence, the “GSE1 FPKM” value was 14.556 FPKM, the “GTDC1 FPKM” value was 5.144 FPKM and the “GXYLT2 FPKM” value was 4.24 FPKM. The “GZMB FPKM” value was 909.046 FPKM, the “HCAR1 FPKM” value was 7.943 FPKM and the “HIVEP3 FPKM” value was 20.545 FPKM. The “HLA-A FPKM” value was 226.558 FPKM, the “HLA-B FPKM” value was 160.359 FPKM and the “HPGD FPKM” value was 3.392 FPKM. The “IFIT3 FPKM” value was 6.682 FPKM, the “IKZF2 FPKM” value was 8.132 FPKM and the “IL2 FPKM” value was 12.964 FPKM. The “IL4R FPKM” value was 12.536 FPKM, the “IL10RA FPKM” value was 3.208 FPKM and the “IL15 FPKM” value was 3.16 FPKM. For the same sequence, the “IL15RA FPKM” value was 7.481 FPKM, the “IL21R FPKM” value was 5.255 FPKM and the “IL21R-AS1 FPKM” value was 3.991 FPKM. For the same sequence, the “IL27RA FPKM” value was 10.764 FPKM, the “IQCJ-SCHIP1 FPKM” value was 1.234 FPKM and the “IQGAP2 FPKM” value was 3.477 FPKM. For the same sequence, the “IRF1 FPKM” value was 152.425 FPKM, the “IRF2 FPKM” value was 34.829 FPKM and the “IRF4 FPKM” value was 2.092 FPKM. For the same sequence, the “IRF7 FPKM” value was 21.372 FPKM, the “ITGA4 FPKM” value was 31.73 FPKM and the “ITGAL FPKM” value was 7.674 FPKM. The “ITK FPKM” value was 62.324 FPKM, the “JAK2 FPKM” value was 8.45 FPKM and the “KCNK1 FPKM” value was 13.139 FPKM. For the same sequence, the “KIAA0101 FPKM” value was 16.766 FPKM, the “KIAA0247 FPKM” value was 8.83 FPKM and the “KIR3DX1 FPKM” value was 3.992 FPKM. The “KLF10 FPKM” value was 15.364 FPKM, the “KLF12 FPKM” value was 4.377 FPKM and the “KREMEN1 FPKM” value was 2.958 FPKM. For the same sequence, the “LAIR1 FPKM” value was 7.19 FPKM, the “LDLRAD4 FPKM” value was 4.769 FPKM and the “LEF1-AS1 FPKM” value was 2.388 FPKM. For the same sequence, the “LEF1 FPKM” value was 48.109 FPKM, the “LGMN FPKM” value was 1.976 FPKM and the “LIF FPKM” value was 0.231 FPKM. The “LIMS2 FPKM” value was 4.304 FPKM, the “LINC00659 FPKM” value was 9.828 FPKM and the “LINC01260 FPKM” value was 7.215 FPKM. The “LMNA FPKM” value was 2.786 FPKM, the “LMO1 FPKM” value was 0.954 FPKM and the “LOC653712 FPKM” value was 2.808 FPKM. The “LOC100506688 FPKM” value was 1.704 FPKM, the “LOC101926963 FPKM” value was 4.742 FPKM and the “LOC101927497 FPKM” value was 10.444 FPKM. For the same sequence, the “LPAR6 FPKM” value was 4.344 FPKM, the “LRRC8C FPKM” value was 11.753 FPKM and the “LRRC20 FPKM” value was 2.839 FPKM. For the same sequence, the “LTBP4 FPKM” value was 9.568 FPKM, the “LUCATI FPKM” value was 9.183 FPKM and the “MAFF FPKM” value was 16.464 FPKM. The “MAGEA4 FPKM” value was 3.775 FPKM, the “MAL FPKM” value was 2.026 FPKM and the “MAMLD1 FPKM” value was 9.949 FPKM. For the same sequence, the “MAP3K7CL FPKM” value was 2.03 FPKM, the “MAST4 FPKM” value was 5.841 FPKM and the “MAZ FPKM” value was 99.474 FPKM. The “MCM2 FPKM” value was 23.634 FPKM, the “MCTP2 FPKM” value was 3.187 FPKM and the “METRN FPKM” value was 1.604 FPKM. The “MFAP4 FPKM” value was 0.663 FPKM, the “MGAT4A FPKM” value was 8.882 FPKM and the “MICAL2 FPKM” value was 1.84 FPKM. The “MIR22HG FPKM” value was 8.63 FPKM, the “MIR3652 FPKM” value was 567.901 FPKM and the “MIR6775 FPKM” value was 21.57 FPKM. The “MIR6821 FPKM” value was 25.116 FPKM.
